Results as given in ChEMBL document CHEMBL1127264, “Substituted 1,3-benzodioxole & 1,3-benzodithiole -2-carboxylates and their tetrazole analogs with potent binding affinity to the angiotensin II AT1 receptor” (Bioorg Med Chem Lett, 1994).

What was measured:
[1] = biological target: T1, Type-1 angiotensin II receptor (Oryctolagus cuniculus, UniProt P34976); experiment: Binding affinity to Angiotensin II receptor, type 1 in rabbit aorta binding assay; type: tissue-based
T1 sequence (P34976 whole entry): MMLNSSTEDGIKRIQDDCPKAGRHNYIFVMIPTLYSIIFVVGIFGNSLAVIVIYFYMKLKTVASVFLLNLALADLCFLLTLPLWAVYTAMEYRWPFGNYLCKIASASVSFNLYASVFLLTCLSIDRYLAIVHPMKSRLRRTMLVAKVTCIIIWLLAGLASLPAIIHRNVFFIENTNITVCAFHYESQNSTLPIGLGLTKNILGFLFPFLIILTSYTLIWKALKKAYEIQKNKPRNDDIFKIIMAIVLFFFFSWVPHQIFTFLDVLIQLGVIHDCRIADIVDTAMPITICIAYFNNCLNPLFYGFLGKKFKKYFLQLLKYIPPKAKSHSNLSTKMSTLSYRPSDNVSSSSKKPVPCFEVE

[2] = biological target: T2, Type-2 angiotensin II receptor (Rattus norvegicus, UniProt P35351); experiment: Binding affinity to AT2 receptor in rat midbrain binding assay; type: tissue-based
T2 sequence (P35351 whole entry): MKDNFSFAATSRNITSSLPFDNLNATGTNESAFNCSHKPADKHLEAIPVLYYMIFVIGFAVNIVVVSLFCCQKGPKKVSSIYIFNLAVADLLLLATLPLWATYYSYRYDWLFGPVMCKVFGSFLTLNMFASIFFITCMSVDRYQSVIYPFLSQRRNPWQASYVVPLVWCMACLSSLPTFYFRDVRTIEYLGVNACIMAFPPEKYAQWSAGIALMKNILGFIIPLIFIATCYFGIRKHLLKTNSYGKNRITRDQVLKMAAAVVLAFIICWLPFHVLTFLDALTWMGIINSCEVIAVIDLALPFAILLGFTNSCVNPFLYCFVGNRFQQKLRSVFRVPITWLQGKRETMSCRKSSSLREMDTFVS

Row | SMILES | IC50 [1] | IC50 [2]
1 | CCCc1nc2c(C)ccnc2n1Cc1ccc2c(c1)OC(c1ccccc1)(c1nn[nH]n1)O2 (stereo not drawn) | 45 nM | 16000 nM
2 | CCCc1nc2c(C)ccnc2n1Cc1ccc2c(c1)SC(C(=O)O)(c1ccccc1)S2 (stereo not drawn) | 34 nM | 8100 nM
3 | CCCc1nc2c(C)ccnc2n1Cc1ccc2c(c1)OC(C(=O)O)(c1ccccc1)O2 (stereo not drawn) | 56 nM | 2800 nM
4 | CCCc1nc2c(C)ccnc2n1Cc1ccc2c(c1)SC(c1ccccc1)(c1nn[nH]n1)S2 (stereo not drawn) | 35 nM | 15000 nM
